Measured values reported in PubChem BioAssay AID488879 (Sanford-Burnham Center for Chemical Genomics, 2010).
Calls of active or inactive are those of the source. How the calls were made is not given here.

target: alkaline phosphatase, placental type (Homo sapiens); experiment: inhibition of placental alkaline phosphatase – biochemical, uHTS hits, selectivity assay for mouse IAP inhibitor project, dose response (AID 488879); conditions: purified human placental alkaline phosphatase, enzymatic inhibition

| Structure (SMILES) | IC50 |
| --- | --- |
| Cc1cc(Cn2nc(-c3ccccc3)cc2C(=O)NCc2cccc(C(F)(F)F)c2)on1 | > 100 µM (inactive) |
| Cc1nn(C(C)C)c(C)c1CN1CCC(C(=O)Nc2cccc(-c3cccc(F)c3)c2)CC1 | 56.6 µM |
| O=[N+]([O-])c1ccccc1NC(=S)N/N=C/c1ccc(O)c(O)c1 | > 100 µM (inactive) |
| O=C(NN1C(=O)CSC1=S)C(=O)NN1C(=O)CSC1=S | > 100 µM (inactive) |
| O=C(O)CNS(=O)(=O)c1ccc2c3c(cccc13)C(=O)N2 | > 100 µM (inactive) |
| O=S(=O)(c1ccc(NC(=S)N/N=C/c2ccc(O)c(O)c2)cc1)N1CCOCC1 | 2.35 µM |
| CCc1cc(Cn2nc(-c3ccccc3)cc2C(=O)NCc2cccc(Br)c2)on1 | > 100 µM (inactive) |
| O=C(c1c(O)cc(O)cc1O)C1c2c(cc(O)c3c2O[C@H](c2ccc(O)cc2)[C@@H](O)C3)OC1c1ccc(O)cc1 (some centres not stated) | 23.2 µM |
| CCN1C(=O)/C(=C2\SC(=S)N(NC(=O)c3ccccc3O)C2=O)c2ccccc21 | > 100 µM (inactive) |
| COc1cc(NS(=O)(=O)c2ccc(NC(=S)NC(=O)/C=C/c3ccco3)cc2)ncn1 | 55.1 µM |
| Cc1ccc(Cl)c2c1=NC(=O)C=2c1[nH]c(=S)[nH]c1O | > 100 µM (inactive) |
| O=C(CSc1ncn[nH]1)CSc1ncn[nH]1 | 23 µM |
| COc1cc(NC(=S)NCCC(c2ccccc2)c2ccccc2)cc(OC)c1 | > 100 µM (inactive) |
| CC(/C=C/C1(O)C(C)CC(=O)CC1(C)C)OC1OC(CO)C(O)C(O)C1O (configuration not stated) | > 100 µM (inactive) |
| O=C1N=c2ccccc2=C1c1sc(=S)n(NC(=O)c2ccccc2)c1O | 5.31 µM |
| S=C(NCCC(c1ccccc1)c1ccccc1)Nc1ccc(Cl)cc1 | > 100 µM (inactive) |

| Structure (SMILES) | IC50 |
| --- | --- |
| Cc1cc(Cl)ccc1NC(=S)NCCC(c1ccccc1)c1ccccc1 | > 100 µM (inactive) |
| COc1ccc(N2C(=O)/C(=C/c3ccco3)C(=O)NC2=S)cc1 | 64.9 µM |
| O=C1/C(=C/c2ccc(O)c(O)c2)Oc2cc(O)ccc21 | 67.2 µM |
| CCOc1ccccc1N1CCN(S(=O)(=O)c2ccc3c4c(cccc24)C(=O)N3)CC1 | > 100 µM (inactive) |
| Cc1ccc(S(=O)(=O)N2CCC(C(=O)Nc3ccc(C(C)C)cc3)CC2)cc1 | > 100 µM (inactive) |
| FC(F)Oc1ccc(NC(=S)NC2CCSc3ccccc32)cc1 (configuration not stated) | > 100 µM (inactive) |
| COc1cc(/C=N/N2C(=O)CSC2=S)ccc1O | > 100 µM (inactive) |
| Cc1ccc(CNC(=S)NC2CCC(C(C)(C)C)CC2)cc1 (configuration not stated) | > 100 µM (inactive) |
| O=C(O)CCCN1C(=O)/C(=C/C=C/c2ccco2)SC1=S | > 100 µM (inactive) |
| COCc1ccc(CN2CCC(C(=O)Nc3cccc(-c4cccc(Cl)c4)c3)CC2)o1 | > 100 µM (inactive) |
| CCOc1ccc(S(=O)(=O)Nc2ccc(O)c(Sc3ncn[nH]3)c2)cc1 | 20.5 µM |
| CN1C(=O)/C(=C/C=C/c2ccco2)C(=O)NC1=S | 24.4 µM |
| NS(=O)(=O)c1cccc(NC(=O)CSc2nnc(-c3ccncc3)n2C2CC2)c1 | > 100 µM (inactive) |
| O=C(CCNS(=O)(=O)c1ccc2[nH]c(=O)oc2c1)Nc1ccccc1 | 42.5 µM |
| Cc1ccc(C)c(NS(=O)(=O)c2ccc3[nH]c(=O)oc3c2)c1 | > 100 µM (inactive) |
| O=C(COC(=O)COc1ccccc1)Nc1ncc([N+](=O)[O-])s1 | > 100 µM (inactive) |
